Experimental data published in patent US20260124214A1, “HETEROCYCLIC COMPOUNDS FOR USE IN THE TREATMENT OF CANCER” (ARTIOS PHARMA LIMITED, priority 2021, published 2026).
Where a name gives a salt, the structure may show the parent alone.

The compounds below were run against T1, Human Polθ polymerase domain (aa1820-2590) (Homo sapiens, UniProt O75417) (assay: Polθ Polymerase Domain WT KI Assay (PicoGreen)). Settings: 100 nM DNA substrate, 0.156 nM Polθ, initial rates vs inhibitor concentration.
T1 construct: Human Polθ polymerase domain (aa1820-2590) was expressed in E. Coli; made in house; host or cells: E. coli
T1 sequence (O75417 1820-2590): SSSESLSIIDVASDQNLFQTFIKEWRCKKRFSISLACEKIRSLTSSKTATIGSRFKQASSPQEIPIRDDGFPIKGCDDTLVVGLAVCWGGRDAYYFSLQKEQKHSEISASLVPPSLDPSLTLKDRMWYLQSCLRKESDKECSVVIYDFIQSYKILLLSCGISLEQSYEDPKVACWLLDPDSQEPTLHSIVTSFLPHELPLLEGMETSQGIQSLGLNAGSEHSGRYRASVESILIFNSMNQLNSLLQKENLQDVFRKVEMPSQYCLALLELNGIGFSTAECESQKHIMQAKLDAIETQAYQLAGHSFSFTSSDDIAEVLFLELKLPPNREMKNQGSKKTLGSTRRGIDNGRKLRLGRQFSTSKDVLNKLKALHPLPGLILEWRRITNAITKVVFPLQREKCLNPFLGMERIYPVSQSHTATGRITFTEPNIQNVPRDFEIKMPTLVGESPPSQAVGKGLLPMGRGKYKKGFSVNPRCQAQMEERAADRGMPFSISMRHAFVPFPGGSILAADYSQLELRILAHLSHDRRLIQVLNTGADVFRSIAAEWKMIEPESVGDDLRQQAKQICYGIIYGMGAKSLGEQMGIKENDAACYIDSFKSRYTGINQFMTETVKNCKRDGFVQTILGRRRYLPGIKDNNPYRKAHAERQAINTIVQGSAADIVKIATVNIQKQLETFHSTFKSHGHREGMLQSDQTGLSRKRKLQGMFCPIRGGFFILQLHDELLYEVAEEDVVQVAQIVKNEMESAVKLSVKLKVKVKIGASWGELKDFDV
Type: biochemical
Experimental: A PicoGreen assay was used to measure the KI values of reversible compounds that inhibit the activity of Polθ in vitro.
Human Polθ polymerase domain (aa1820-2590) was expressed in E. Coli, purified, aliquoted and stored at −80° C. until required. Polθ substrate was generated from a 1.2:1 mix of DNA II Short to DNA II Long to give a final concentration of […] substrate in annealing buffer (20 mM Tris pH 7.5, 50 mM NaCl). The substrate was heated in 50 mL aliquots to 95° C. in a heating block for 5 min before the heating block switched off, the reaction left to cool to rt and stored at −20° C. until required.
Assay measurements were performed with 1× buffer comprising 25 mM Tris pH 7.5, 12.5 mM NaCl, […], 5% (v/v) glycerol, 0.01% v/v Triton x-100, 0.1 mg/ml BSA, 1 mM DTT. […] 100 nL of 23×1:1.5-fold serial dilutions and a DMSO only control were dispensed using the Tecan dispenser into Greiner 384 well black low volume plates (product code 784076). DMSO concentration was maintained at 1% of the final assay volume by back filling with DMSO.
To stop the reaction, 5 μL of a solution containing 25 mM Tris-HCl PH 7.5 and 20 mM EDTA was added at […] (t=0, 15, 30, 60, 90, 120, 150, 180 mins) using the Tempest's time delay function. The plates were covered during the time course to prevent evaporation. After completing the assay, 5 μL of detection reagent (25 mM Tris-HCl pH 7.5 and 2.5% (v/v) PicoGreen) was dispensed into the wells using a Tempest liquid handler (Formulatrix) and plates subsequently read on the CLARIOstar Plus (BMG Labtech) using the default optical settings for fluorescein and the auto gain/focus settings.
All data analysis was carried out using GraphPad Prism V.8 (GraphPad Software Inc, San Diego, CA). Time course data for each inhibitor concentration were fitted to the linear regression model in GraphPad Prism. Any time points where the control (DMSO only) reaction was no longer linear were excluded from the analysis. The initial rates (slopes) obtained from the linear regression were then plotted against inhibitor concentration and fitted to an inhibitor vs. response variable slope (four parameter) model on GraphPad Prism to determine the KI values.

Row | Structure (SMILES) | Ki [nM]
1 | Cc1cc(C(F)(F)F)cc(N2C(=O)C[C@@H]3CN(C[C@@H](O)CN(C)C)c4c(Cl)cccc4N(C)C(=O)[C@H]32)n1 (racemic) [Example 132a, (3aR,11aS)-6-chloro-5-((S/R)-3-(dimethylamino)-2-hydroxypropyl)-10-methyl-1-(6-methyl-4-(trifluoromethyl)pyridin-2-yl)-1,3a,4,5,10,11a-hexahydro-2H-benzo[b]pyrrolo[2,3-f][1,4]diazocine-2,11(3H)-dione] | 6.27
2 | Cc1cc(C(F)(F)F)cc(N2C(=O)C[C@@H]3CN(C[C@@H](O)CN4CCOCC4)c4c(Cl)cccc4N(C)C(=O)[C@H]32)n1 (racemic) [Example 133a, (3aR,11aS)-6-chloro-5-((S/R)-2-hydroxy-3-morpholinopropyl)-10-methyl-1-(6-methyl-4-(trifluoromethyl)pyridin-2-yl)-1,3a,4,5,10,11a-hexahydro-2H-benzo[b]pyrrolo[2,3-f][1,4]diazocine-2,11(3H)-dione] | 1.47
3 | Cc1cc(C(F)(F)F)cc(N2C(=O)C[C@@H]3CN(CCN4C[C@@H](C)N[C@@H](C)C4)c4c(C)cccc4N(C)C(=O)[C@H]32)n1 (relative stereo) [Example 45, (3aR,11aS)-5-(2-(rel-(3R,5S)-3,5-Dimethylpiperazin-1-yl)ethyl)-6,10-dimethyl-1-(6-methyl-4-(trifluoromethyl)pyridin-2-yl)-1,3a,4,5,10,11a-hexahydro-2H-benzo[b]pyrrolo[2,3-f][1,4]diazocine-2,11(3H)-dione dihydrochloride] | 0.651
4 | Cc1cc(C(F)(F)F)cc(N2C(=O)C[C@@H]3CN(C[C@H]4CCNC[C@H]4C#N)c4c(Cl)cccc4N(C)C(=O)[C@H]32)n1 (relative stereo) [Example 102, (rel-cis)-4-(((3aR,11aS)-6-Chloro-10-methyl-1-(6-methyl-4-(trifluoromethyl)pyridin-2-yl)-2,11-dioxo-1,2,3,3a,4,10,11,11a-octahydro-5H-benzo[b]pyrrolo[2,3-f][1,4]diazocin-5-yl)methyl)piperidine-3-carbonitrile hydrochloride] | 1.77
5 | Cc1cc(C(F)(F)F)cc(N2C(=O)CC3CN(C4CC(OCc5ccccc5)C4)c4c(F)cccc4N(C)C(=O)C32)n1 (single isomer, unassigned) [Example 92a] | 9.06
6 | Cc1cc(C(F)(F)F)cc(N2C(=O)C[C@@H]3CN(C4CC(OCc5ccccc5)C4)c4c(F)cccc4N(C)C(=O)[C@H]32)n1 (single isomer, unassigned) [Example 92b] | 14.7
7 | Cc1cc(C(F)(F)F)cc(N2C(=O)C[C@@H]3CN(Cc4cn5c(n4)C(C)N(C)CC5)c4c(Cl)cccc4N(C)C(=O)[C@H]32)n1 (single isomer, unassigned) [Example 96a] | 1.45
8 | Cc1cc(C(F)(F)F)cc(N2C(=O)C[C@@H]3CN(CC4CCCCN4)c4c(Cl)cccc4N(C)C(=O)[C@H]32)n1 (single isomer, unassigned) [Example 105a] | 8.57
9 | Cc1cc(C(F)(F)F)cc(N2C(=O)C[C@@H]3CN(CC4COCCN4)c4c(F)cccc4N(C)C(=O)[C@H]32)n1 (single isomer, unassigned) [Example 106a] | 13.7
10 | Cc1cc(C(F)(F)F)cc(N2C(=O)C[C@@H]3CN(CC4CCCN4)c4c(Cl)cccc4N(C)C(=O)[C@H]32)n1 (single isomer, unassigned) [Example 107a] | 3.91
11 | Cc1cc(C(F)(F)F)cc(N2C(=O)C[C@@H]3CN(Cc4cn5c(n4)C(C)N(C)CC5)c4c(C)cccc4N(C)C(=O)[C@H]32)n1 (single isomer, unassigned) [Example 116a] | 0.63
12 | Cc1cc(C(F)(F)F)cc(N2C(=O)C[C@@H]3CN(CC4CCCCN4C)c4c(Cl)cccc4N(C)C(=O)[C@H]32)n1 (single isomer, unassigned) [Example 117a] | 3.37
13 | Cc1cc(C(F)(F)F)cc(N2C(=O)C[C@@H]3CN(CC4CCCN4C)c4c(Cl)cccc4N(C)C(=O)[C@H]32)n1 (single isomer, unassigned) [Example 118a] | 8.5
14 | Cc1cc(C(F)(F)F)cc(N2C(=O)C[C@@H]3CN(C[C@H]4CCN(C)[C@@H](C)C4)c4c(Cl)cccc4N(C)C(=O)[C@H]32)n1 (single isomer, unassigned) [Example 126a] | 1.56
15 | Cc1cc(C(F)(F)F)cc(N2C(=O)C[C@@H]3CN(C[C@@H]4CCN(C)[C@H](C)C4)c4c(Cl)cccc4N(C)C(=O)[C@H]32)n1 (single isomer, unassigned) [Example 126b] | 1.91
16 | Cc1cc(C(F)(F)F)cc(N2C(=O)C[C@@H]3CN(C[C@H]4CCN(C)[C@H](C)C4)c4c(Cl)cccc4N(C)C(=O)[C@H]32)n1 (single isomer, unassigned) [Example 126c] | 0.882
17 | Cc1cc(C(F)(F)F)cc(N2C(=O)C[C@@H]3CN(C[C@@H]4CCN(C)[C@@H](C)C4)c4c(Cl)cccc4N(C)C(=O)[C@H]32)n1 (single isomer, unassigned) [Example 126d] | 1.48
18 | Cc1cc(C(F)(F)F)cc(N2C(=O)C[C@@H]3CN(CC(C)O)c4c(Cl)cccc4N(C)C(=O)[C@H]32)n1 (single isomer, unassigned) [Example 131b] | 1.92

Continued by falling Ki, values first:

Row | Ki [nM] | Structure (SMILES)
19 | 17.3 | Cc1cc(C(F)(F)F)cc(N2C(=O)C[C@@H]3CN(C[C@H]4CNC[C@@H]4O)c4c(F)cccc4N(C)C(=O)[C@H]32)n1 (relative stereo) [Example 91, (3aR,11aS)-6-Fluoro-5-(((rel-trans)-4-hydroxypyrrolidin-3-yl)methyl)-10-methyl-1-(6-methyl-4-(trifluoromethyl)pyridin-2-yl)-1,3a,4,5,10,11a-hexahydro-2H-benzo[b]pyrrolo[2,3-f][1,4]diazocine-2,11(3H)-dione]
20 | 10.2 | Cc1cc(C(F)(F)F)cc(N2C(=O)C[C@@H]3CN(CC(C)O)c4c(F)cccc4N(C)C(=O)[C@H]32)n1 (single isomer, unassigned) [Example 130b]
21 | 7.92 | Cc1cc(C(F)(F)F)cc(N2C(=O)C[C@@H]3CN(Cc4ccc(C5CCCN5C)cc4)c4c(F)cccc4N(C)C(=O)[C@H]32)n1 (single isomer, unassigned) [Example 125a, hydrochloride]
22 | 6.14 | Cc1cc(C(F)(F)F)cc(N2C(=O)C[C@@H]3CN(CC(O)CN(C)C)c4c(Cl)cccc4N(C)C(=O)[C@H]32)n1 (single isomer, unassigned) [Example 132b]
23 | 4.14 | Cc1cc(C(F)(F)F)cc(N2C(=O)C[C@@H]3CN(CC4COCCN4)c4c(C)cccc4N(C)C(=O)[C@H]32)n1 (single isomer, unassigned) [Example 112a]
24 | 1.55 | Cc1cc(C(F)(F)F)cc(N2C(=O)C[C@@H]3CN(CC4COCCN4)c4c(Cl)cccc4N(C)C(=O)[C@H]32)n1 (single isomer, unassigned) [Example 108b]
25 | 1.39 | Cc1cc(C(F)(F)F)cc(N2C(=O)C[C@@H]3CN(CC4CN(C)CCO4)c4c(Cl)cccc4N(C)C(=O)[C@H]32)n1 (single isomer, unassigned) [Example 120a, hydrochloride]
26 | 1.11 | Cc1cc(C(F)(F)F)cc(N2C(=O)C[C@@H]3CN(CC4CNCCO4)c4c(Cl)cccc4N(C)C(=O)[C@H]32)n1 (single isomer, unassigned) [Example 109a]
27 | 1.08 | Cc1cc(C(F)(F)F)cc(N2C(=O)C[C@@H]3CN(CC4COCCN4C)c4c(Cl)cccc4N(C)C(=O)[C@H]32)n1 (single isomer, unassigned) [Example 119b]
